Test results reported in patent US11426441B2, “Composition comprising protein phosphatase 1 inhibitory peptide for treating vascular diseases” (BethphaGen Inc., priority 2016, dated 2022).
No end group written: not given here.

Assays:
[1] = system: monocrotaline (MCT)-induced pulmonary arterial hypertension rats; assay: Monocrotaline-induced pulmonary arterial hypertension in rats; format: in vivo, rat
Procedure: Vascular smooth muscle cells (VSMCs) were homogenized in a minimal volume of 50 mM Tris-HCl, pH 7.4, supplemented with a broad-spectrum protease inhibitor cocktail (Calbiochem). The proteins were separated by SDS-PAGE and then transferred to polyvinylidene fluoride membranes (Schleicher & Schuell). After blocking with 5% (w/v) non-fat milk for 1 hour and washing with TBST, the membranes were incubated with antibodies against SERCA2a, SERCA2b (21st century biochemical), PCNA (abcam), GAPDH (Sigma-Aldrich), phospho-eNOS, eNOS, phospho-eIF2α, eIF2α (cell signaling), Vimentin, α-SMA, BMPR2 (Santa cruz), phospho-Akt, Akt (cell signaling), phospho-phospholamban (Merck), and Phospholamban (cell signaling). The membranes were then incubated with horseradish peroxidase-conjugated secondary antibodies (Jackson ImmunoResearch, West Grove, Pa., USA) and developed using a chemiluminescent substrate (Dogen). The blots were scanned and quantified using LAS software.
Eleven Sprague-Dawley rats (Damool science, Korea) weighing 250-300 g were administered with 60 mg/kg monocrotaline (MCT) (Sigma Aldrich) via intraperitoneal injection, and three animals of a control group were administered with 0.9% physiological saline. According to the dosing schedule, simultaneously with the administration of MCT, six animals for the […] were administered with ψPLB-SE peptide diluted in 300 μl via respiratory inhalation four times at intervals of one week. Five animals for the control group were administered with control peptide. The rats were sacrificed one week after the administration with last peptide, and then histological analysis and molecular biological experiments were conducted.
In order to indirectly measure the pulmonary artery pressure, right heart catheterization was conducted on the basis of a procedure reported in Nature Protocols in 2008. Rats were anesthetized, followed by tracheal intubation. The rats were placed on a homeothermic plate (AD Instruments, Spechbach, Germany) for the maintenance of body temperature during heart catheterization, and then kept breathing using an artificial respiratory device only for an animal (MiniVent type 845, Hugo Sachs Elektronik, March-Hugstetten, Germany). The chest of the rats was opened, and then high-fidelity 1.4 F micromanometer/Mikro-Tip Pressure catheter (Millar Instruments, Houston, Tex.) was allowed to infiltrate the tricuspid site, to measure the right ventricular end-systolic pressure, right ventricular end-diastolic pressure, left ventricular end-systolic pressure, and left ventricular end-diastolic pressure (RVESP, RVEDP, LVESP, LVEDP). Related values and data were collected and analyzed using the PowerLab data acquisition system (MPVS-Ultra Single Segment Foundation System, AD Instruments) and LabChart 7 for Windows software.
Pulmonary tissues were taken from animal models, fixed with 4% (w/v) paraformaldehyde for 5 days at room temperature, and then washed with PBS. After embedding the specimens in paraffin and sectioning the tissue blocks into a thickness of 7 μm, the sections were stained with haematoxylin and eosin (Sigma Aldrich) to investigate the vascular thickness and inflammation, and the sections were stained with Masson-trichrome (Sigma Aldrich) to investigate the extent of perivascular fibrosis, and then observed through an optical microscope.
The pulmonary tissues were obtained from rats and mice, and the cytokine levels in the tissues were quantitatively analyzed using human proinflammatory 10plex Meso Scale Diagnostics plates (MSD; Rockville, Md.).

SERCA2a [2] = assay: A23187-induced SERCA2a degradation in HCSMCs; format: cell-based, human; details: HCSMCs pretreated 1 hour with 3 μM ψPLB-SE or 15 μM MDL28170, then 50 μM A23187 2 hours
Procedure: FIGS. 4a, 4b, 4c and 4d. (4a-4c) HCSMCs were pretreated with 3 μM ψPLB-SE and 15 μM MDL28170 for 1 hour, and then treated with 50 μM A23187 for 2 hours. (4a) Immunostaining was performed with antibodies against SERCA2a and SERCA2b (green). Nuclei were stained with Hoechst (blue). Representative merged images are shown. Scale bar, 50 μm. (4b) Western blot analysis was performed with cell extracts. Data are expressed as the means±SD (n=3-4; *, P<0.05). (4c) Baseline Ca^2+ concentration was measured by lonOptix calcium imaging system. (4d) RASMC were treated with ψPLB-SE or control peptide under the same conditions as described for FIG. 1B. The baseline Ca^2+ concentration was measured by lonOptix calcium imaging system (*, P<0.05).
The rat aortic smooth muscle cells (RASMCs) were isolated from the medial layer of the thoracic aorta derived from male Sprague-Dawley rats (body weight, 180-200 g) by an enzymatic reaction with collagenase (50 U/mL, Worthington) and pancreatic elastase (0.25 mg/mL, Sigma-Aldrich) for 4 hours at 37. The cells were collected and resuspended in DMEM containing 20% (v/v) fetal bovine serum. The resuspension was then plated on collagen I (Sigma-Aldrich)-coated glass coverslips and incubated at 37 in an atmosphere of 5% (v/v) CO2 and 95% (v/v) air. Human coronary smooth muscle cells (HCSMCs), pulmonary arterial endothelial cells (PAECs), and pulmonary arterial smooth muscle cells (PASMCs) were purchased from Lonza and cultured in EBM or SmBM (Lonza) supplemented with 0.5 mg/mL hEGF, […], 1 mg/mL hFGF, […] gentamicin/amphotericin-B, and 5% fetal bovine serum. All the cells were cultured at 37 in 5% (v/v) CO2 and 95% (v/v) air. RASMCs and HCSMCs were, respectively, plated at the densities of 1×10^4 cells/cm^2 and 1×10^5 cells/cm^2 for immunostaining and western blotting experiments. […]
Vascular smooth muscle cells (VSMCs) were homogenized in a minimal volume of 50 mM Tris-HCl, pH 7.4, supplemented with a broad-spectrum protease inhibitor cocktail (Calbiochem). […] The blots were scanned and quantified using LAS software.

SERCA2a [3] = assay: Calcium uptake assay (SERCA2a activity) in PASMCs; format: biochemical; details: synthetic phenotype, 3 μM
Procedure: Pulmonary arterial smooth muscle cells (PASMCs) were homogenized in a solution of pH 7.0 containing 40 mM imidazole, 10 mM NaF, 1 mM EDTA, 300 mM sucrose, and 0.5 mM DTT, and 250 μg of the lysate was added to an uptake buffer of pH 7.0 containing 100 mM KCl, 5 mM MgCl2, 5 mM NaN3, […], and 40 mM imidazole, and calcium uptake assay was performed with a calcium concentration of pCa 6, containing radioactive isotopes. The cells were treated with 1 μM ruthenium red (Sigma Aldrich), followed by waiting at 37° C. for 3 min, and then treated with 5 mM K-oxalate and Mg-ATP (Sigma Aldrich). In addition, 500 μl of the reaction material was filtered out through a 0.45 μm filter (Millipore) from the start of a reaction to 4 minutes at intervals of 1 minute, and cpm (count per minute) was measured using a scintillation counter (Beckman).

In the case of “RAETIEMPQ (not fully specified) [ψPLB-SE, 9-mer PP1 decoy peptide mimicking phosphorylated PLB; conjugated via GGG linker to cell penetrating peptide dNP2 or TAT]”, the “right ventricular end-systolic pressure” value ([1]; MCT 60 mg/kg rats, peptide via respiratory inhalation once a week for 4 weeks, MCT 67.4±6.4, sham 33.7±1.7) is reported as 33.5±5.8, the “expression degree of BMPR2” value ([1]; rat pulmonary tissue) is reported as “restored” and the “fibrosis extent of vascular adventitia (Masson-trichrome staining)” value ([1]; rat pulmonary tissue) is reported as “reduced”. The “increase in vascular thickening (hematoxylin and eosin staining)” value ([1]; rat pulmonary tissue) was “attenuated”, the “phosphorylation level of eIF2α” value ([1]; rat pulmonary tissue) was “restored” and the “proinflammatory cytokines (GM-CSF, TNF-α, IL-17, IL-1β, IL-6, TGF-β) levels” value ([1]; rat pulmonary tissue) was “restored to nearly to the normal levels”. For the same sequence, the “eNOS phosphorylation level (eNOS activity)” value ([1]; rat pulmonary tissue proteins) was “increased”, the “increases in the expression of vimentin and α-SMA” value ([1]; rat pulmonary tissue, protein quantitative analysis) was “attenuated” and the “A23187 (Ca^2+)-dependent degradation of SERCA2a” value (SERCA2a [2]) was “completely inhibited”. For the same sequence, the “SERCA2a activity (Ca^2+ uptake assay)” value (SERCA2a [3]) was “restored”.
